Experimental data from BindingDB's records for doi:10.7270/Q2TX3CSC (Vanderbilt Screening Center for GPCRs, Ion Channels and …, 2009).

What follows are molecules tested against T1, Solute carrier family 12 member 5 (Homo sapiens, UniProt Q9H2X9) (assay: KCC2 modulator potency by thallium flux, dose response, cell-based, HEK293 KCC2, FluoZin-2 fluorescence (AID 1736)). Settings: not given.
T1 sequence (Q9H2X9 whole entry): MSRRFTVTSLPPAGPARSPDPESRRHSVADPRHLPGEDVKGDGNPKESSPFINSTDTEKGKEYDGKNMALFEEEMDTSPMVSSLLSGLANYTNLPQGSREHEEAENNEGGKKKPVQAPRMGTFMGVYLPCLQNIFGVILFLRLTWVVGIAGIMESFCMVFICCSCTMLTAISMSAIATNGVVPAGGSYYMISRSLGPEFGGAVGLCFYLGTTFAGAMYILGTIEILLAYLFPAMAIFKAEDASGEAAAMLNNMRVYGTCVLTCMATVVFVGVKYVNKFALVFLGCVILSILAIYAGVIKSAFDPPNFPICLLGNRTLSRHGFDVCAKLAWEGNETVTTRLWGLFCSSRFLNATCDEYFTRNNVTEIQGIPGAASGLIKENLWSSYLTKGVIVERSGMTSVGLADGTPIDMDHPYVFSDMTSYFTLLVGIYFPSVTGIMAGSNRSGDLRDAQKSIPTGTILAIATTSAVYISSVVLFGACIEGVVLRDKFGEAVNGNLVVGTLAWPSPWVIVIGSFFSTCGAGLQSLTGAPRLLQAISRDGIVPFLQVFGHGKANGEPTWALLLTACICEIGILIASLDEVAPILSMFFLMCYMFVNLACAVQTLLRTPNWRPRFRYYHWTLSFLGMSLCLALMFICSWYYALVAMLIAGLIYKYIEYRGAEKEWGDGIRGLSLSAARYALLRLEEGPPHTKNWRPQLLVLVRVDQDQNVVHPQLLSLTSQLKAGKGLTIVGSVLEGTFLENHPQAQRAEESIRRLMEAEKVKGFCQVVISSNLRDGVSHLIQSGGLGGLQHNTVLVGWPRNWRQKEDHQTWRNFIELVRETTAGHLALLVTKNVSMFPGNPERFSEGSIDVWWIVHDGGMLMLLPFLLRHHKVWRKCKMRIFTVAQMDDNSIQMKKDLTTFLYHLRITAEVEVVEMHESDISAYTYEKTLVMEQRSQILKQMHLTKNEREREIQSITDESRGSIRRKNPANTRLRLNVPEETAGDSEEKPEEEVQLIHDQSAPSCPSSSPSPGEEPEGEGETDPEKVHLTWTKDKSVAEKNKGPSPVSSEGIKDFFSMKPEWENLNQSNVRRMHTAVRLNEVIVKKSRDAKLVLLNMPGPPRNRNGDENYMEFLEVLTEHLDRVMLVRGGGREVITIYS

Structure (SMILES)	EC50 [µM]
COc1ccc(NC(=S)NC(N)=Nc2nc(C)c3ccccc3n2)cc1 [(1E)-1-[amino-[(4-methyl-2-quinazolinyl)amino]methylidene]-3-(4-methoxyphenyl)thiourea]	4.61
CNc1ccc2oc(C[C@H]3O[C@@]4(CC[C@H]3C)O[C@H]([C@H](C)C(=O)c3ccc[nH]3)[C@H](C)C[C@H]4C)nc2c1C(=O)O [MLS001056783]	11.3
O=C(NCc1ccc2c(c1)OCO2)c1ccc(COc2cc(Cl)ccc2Cl)o1 [5-[(2,5-dichlorophenoxy)methyl]-N-piperonyl-2-furamide]	6.14
C=CCNc1oc(Cc2cccc3ccccc23)nc1C#N [2-(1-naphthalenylmethyl)-5-(prop-2-enylamino)-4-oxazolecarbonitrile]	4.78
O=S1(=O)N=C(N2CCN(Cc3ccccc3)CC2)c2ccccc21 [3-(4-Benzyl-piperazin-1-yl)-benzo[d]isothiazole 1,1-dioxide]	6.74
O=C(O)CCc1cc(I)c(Oc2ccc(O)c(I)c2)c(I)c1 [3-[4-(4-hydroxy-3-iodophenoxy)-3,5-diiodophenyl]propanoic acid]	5.39
CC(=NNC(=S)Nc1c(C)cccc1C)c1cc2ccccc2o1 [SMR000260555]	4.46
O=S(=O)(NCc1ccccc1)c1ccc(Cl)c(S(=O)(=O)NCc2ccccc2)c1 [1-N,3-N-dibenzyl-4-chlorobenzene-1,3-disulfonamide]	2.34
CC[C@H](CO)Nc1nc(Nc2cccc(Cl)c2)c2ncn(C(C)C)c2n1 [(R)-2-(6-(3-chlorophenylamino)-9-isopropyl-9H-purin-2-ylamino)butan-1-ol]	9.54
Sc1nnc(Cc2c[nH]c3ccccc23)o1 [5-(1H-indol-3-ylmethyl)-1,3,4-oxadiazole-2(3H)-thione]	16.1
O=[N+]([O-])c1cc(-n2c(O)c3c(c2O)CCCC3)ccc1NC1CCN(Cc2ccccc2)CC1 [2-[3-nitro-4-[[1-(phenylmethyl)-4-piperidinyl]amino]phenyl]-3a,4,5,6,7,7a-hexahydroisoindole-1,3-dione]	221
O=c1c2ccccc2c(-c2nnc(S)o2)nn1Cc1ccccc1 [2-(phenylmethyl)-4-(2-sulfanylidene-3H-1,3,4-oxadiazol-5-yl)-1-phthalazinone]	2.98
Cn1c(C(=O)NCCCN2CCN(c3ccccc3F)CC2)cc2c(=O)n(C)c3ccccc3c21 [MLS000118127]	10.3
Cc1ccccc1-c1nc(C[S+]([O-])CC(=O)NCc2ccccc2)c(C)o1 (stereo unspecified) [2-[[5-methyl-2-(2-methylphenyl)-1,3-oxazol-4-yl]methylsulfinyl]-N-(phenylmethyl)ethanamide]	7.15
O=C(Nc1ccc2oc(-c3ccccc3)nc2c1)c1ccncc1 [MLS000109492]	4.95
CCc1cc(C(=O)N2CCCC(CNC(=O)c3ccc(-c4ccccc4)cc3)C2)no1 (stereo unspecified) [MLS000731765]	3.2
O=C1OC(c2ccc(O)cc2)(c2ccc(O)cc2)c2ccccc21	2.31

Structure (SMILES)	EC50 [µM]
Cc1[nH]c2ccccc2c1Cc1nnc(S)o1	3.21
O=C(NC(=S)Nc1nc(-c2cccc([N+](=O)[O-])c2)cs1)c1ccccc1Cl [2-chloranyl-N-[[4-(3-nitrophenyl)-1,3-thiazol-2-yl]carbamothioyl]benzamide]	9.6
Cc1ccc2c(c1)nnn2C1CCN(S(=O)(=O)c2cccc(S(=O)(=O)N(C)C)c2)CC1 [MLS000033642]	3.38
CS/C(=N\Cc1ccc(F)cc1)NS(=O)(=O)c1cccs1 [3-(4-fluorobenzyl)-2-methyl-1-(2-thienylsulfonyl)isothiourea]	0.702
COC(=O)[C@@H](NC(=O)O[C@@H]1C(=O)c2ccc(OC)cc2O[C@H]1c1cccc(C(F)(F)F)c1)C(C)C [(2S)-2-[[(2S,3S)-4-keto-7-methoxy-2-[3-(trifluoromethyl)phenyl]chroman-3-yl]oxycarbonylamino]-3-methyl-butyric acid methyl ester]	1.24
CCc1ccc(OCCNC(=O)c2ccccc2SCc2ccccc2)cc1 [2-(benzylthio)-N-[2-(4-ethylphenoxy)ethyl]benzamide]	7.39
Cc1ccc(Nc2nnc(SCC(=O)c3ccc(Br)s3)s2)c(C)c1 [1-(5-bromanylthiophen-2-yl)-2-[[5-[(2,4-dimethylphenyl)amino]-1,3,4-thiadiazol-2-yl]sulfanyl]ethanone]	2.31
C=CCn1c(Cc2cccs2)nnc1SCC(=O)c1ccc2ccccc2c1 [1-(2-naphthalenyl)-2-[[4-prop-2-enyl-5-(thiophen-2-ylmethyl)-1,2,4-triazol-3-yl]thio]ethanone]	4.42
Cc1ccc(NC(=O)CSc2ccc(-c3ccco3)nn2)cc1 [2-[6-(furan-2-yl)pyridazin-3-yl]sulfanyl-N-(4-methylphenyl)acetamide]	3.48
Cc1ccc(NC(=O)c2ccccc2NS(=O)(=O)c2ccc(Cl)s2)cc1 [2-[(5-chloranylthiophen-2-yl)sulfonylamino]-N-(4-methylphenyl)benzamide]	1.17
O=C(CSc1ccccc1C(=O)NCc1ccccc1)NC12CC3CC(CC(C3)C1)C2	9.17
Cc1nc(SCc2ccc(F)cc2)c([N+](=O)[O-])[nH]1 [SMR000271028]	6.28
CC(=O)NCCC(=O)N1CCCC(CNC(=O)c2ccc(-c3ccccc3)cc2)C1 (stereo unspecified) [MLS000733794]	5
O=[N+]([O-])c1ccc(CSc2nnc(SCc3ccccc3)s2)cc1 [2-(benzylthio)-5-[(4-nitrobenzyl)thio]-1,3,4-thiadiazole]	2.24
Cc1ccc(OCCC(=O)OCC(=O)N2c3ccccc3CC2C)cc1 (stereo unspecified) [3-(4-methylphenoxy)propanoic acid [2-(2-methyl-2,3-dihydroindol-1-yl)-2-oxoethyl] ester]	3.85
CCOc1cc(Br)ccc1S(=O)(=O)NCc1ccccc1 [4-bromanyl-2-ethoxy-N-(phenylmethyl)benzenesulfonamide]	14.7
O=C(O)CC/C(=C\c1ccccc1[N+](=O)[O-])c1nc2ccccc2s1 [(E)-4-(1,3-benzothiazol-2-yl)-5-(2-nitrophenyl)-4-pentenoic acid]	500

Same assay, conditions: inactive by the depositor's call

Structure (SMILES)	EC50 [µM]
Cc1ccc(Nc2nnc(SCC(=O)c3cc4ccccc4o3)s2)cc1C [1-(1-benzofuran-2-yl)-2-[[5-(3,4-dimethylanilino)-1,3,4-thiadiazol-2-yl]sulfanyl]ethanone]	0.0853
COc1ccc(Nc2nnc(SCc3cc(=O)n4ccsc4n3)s2)cc1 [7-[[5-(4-methoxyanilino)-1,3,4-thiadiazol-2-yl]sulfanylmethyl]-[1,3]thiazolo[3,2-a]pyrimidin-5-one]	8870
Cc1cccc(N2CCN(C(=O)CCCn3c(=S)[nH]c4cc5c(cc4c3=O)OCO5)CC2)c1C [MLS000095366]	22.6
CSc1sc(-c2nnc(S)n2C)c2c1C=CCC2 [4-methyl-3-[3-(methylthio)-6,7-dihydro-2-benzothiophen-1-yl]-1H-1,2,4-triazole-5-thione]	15.7
O=C(COc1ccc2ccccc2c1)NN=Cc1ccccn1 [2-(2-naphthalenyloxy)-N-(2-pyridinylmethylideneamino)acetamide]	330
CCCn1c(NC(=S)Nc2ccccc2)nc2ccccc21 [1-phenyl-3-(1-propyl-2-benzimidazolyl)thiourea]	60400
Cn1cc(SCC(=O)N2CCN(c3ccccc3)CC2)c2ccccc21 [2-(1-methylindol-3-yl)sulfanyl-1-(4-phenylpiperazin-1-yl)ethanone]	78.4
